Source: patent US7365096B2, “Methods for selectively inhibiting Janus tyrosine kinase 3 (Jak3)” (Board of Regents, The University of Texas System, priority 2002, dated 2008)
“And” between values parts separate entries of the source, which are not always exact repeats. Equal values may be shown once. “Also recorded” adds a separate entry of the source.

What was measured:
Lck [1] = target: T1, Lck (Homo sapiens, UniProt P06239); experiment: Tyrosine phosphorylation of activated Lck in YT cells; format: cell-based; parameters: Cellular extracts were immunoprecipitated with anti-Fyn or anti-Lck antibodies; endogenous in cells; host or cells: YT cells; settings: 1-100 μM, 2 hours
Target sequence in this assay (P06239 whole entry): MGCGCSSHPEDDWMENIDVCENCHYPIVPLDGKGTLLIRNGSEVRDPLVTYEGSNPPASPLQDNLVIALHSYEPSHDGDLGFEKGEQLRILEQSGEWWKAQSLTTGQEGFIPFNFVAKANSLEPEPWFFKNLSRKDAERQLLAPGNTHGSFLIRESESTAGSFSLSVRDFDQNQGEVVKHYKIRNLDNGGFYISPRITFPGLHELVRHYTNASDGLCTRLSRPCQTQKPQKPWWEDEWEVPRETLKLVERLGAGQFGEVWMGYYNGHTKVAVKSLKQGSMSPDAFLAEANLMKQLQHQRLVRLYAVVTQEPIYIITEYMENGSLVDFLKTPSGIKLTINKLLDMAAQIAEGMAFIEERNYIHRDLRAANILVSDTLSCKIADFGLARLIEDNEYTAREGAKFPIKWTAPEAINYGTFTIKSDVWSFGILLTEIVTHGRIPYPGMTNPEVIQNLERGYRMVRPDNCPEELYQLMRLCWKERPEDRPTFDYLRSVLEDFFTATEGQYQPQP

[2] = system: LEW or third-party heart allografts; experiment: Adoptive transfer of T cells from tolerant recipients into irradiated ACI heart allograft recipients; format: in vivo, rat
Experimental: ACI rat recipients of LEW kidney allografts were treated for 14 days with NC1153 delivered by daily oral gavage. […] ACI rat recipients of LEW kidney allografts were treated for 7 days and thereafter 3×/week up to 90 days with 160 mg/kg NC1153 delivered by daily oral gavage. […] The mechanism of tolerance was examined when irradiated (400 rads) ACI recipients of LEW heart allografts were adoptively transferred with 30×10^6 purified T cells from tolerant recipients.

PKA = experiment: Kinase substrate phosphorylation (FIG. 9C); format: biochemical; settings: 10 or 50 μM
Experimental: (§1) Non-Jak3 mediated NfκB activation by TNF-α was not affected within the same treatment set (lower panel). […] Prolactin [PRL] (+) or (−) indicates whether the cells were stimulated with prolactin with Jak2 activation. Phosphotyrosine Western blots detect Jak2-Stat5 activation but no inhibition by 649641P (NC1153). […] 649641P (NC1153) was tested at 10 (open bars) or 50 μM (filled bars) to block growth factor tyrosine kinases (FGFR3 and PDGFRα), Src family tyrosine kinases (Src, Fyn, Lck, Yes, Zap70) or serine threonine kinases (PKC and PKA) phosphorylation of a substrate. The activity of the control is plotted as a dashed line.
(§2) In FIG. 9A, it can be seen that NC1153 inhibits Jak3 driven transcription factor-Stat5a/b in PHA activated T-cells treated with increasing concentrations of NC1153 in a dose dependent manner as measured via EMSA analysis (upper panel). The lane identified as “cold compete” contains unlabeled probe. However, non-Jak3 mediated NfκB activation (lower panel) by TNF-α was not affected within the same treatment set. […] Rat Nb2 cells were treated with increasing concentration of NC1153 and then stimulated with prolactin. Phosphotyrosine Western blots detect activation but no inhibition by NC1153. […] Activity of the control is plotted as a dashed line.

Src = Src (Homo sapiens, UniProt P12931); experiment: Kinase substrate phosphorylation (FIG. 9C); format: biochemical; settings: 10 or 50 μM
Experimental: as §1, §2

Zap70 = target: T2, Zap70 (Homo sapiens, UniProt P43403); experiment: Kinase substrate phosphorylation (FIG. 9C); format: biochemical; settings: 10 or 50 μM
T2 sequence (P43403 1-619): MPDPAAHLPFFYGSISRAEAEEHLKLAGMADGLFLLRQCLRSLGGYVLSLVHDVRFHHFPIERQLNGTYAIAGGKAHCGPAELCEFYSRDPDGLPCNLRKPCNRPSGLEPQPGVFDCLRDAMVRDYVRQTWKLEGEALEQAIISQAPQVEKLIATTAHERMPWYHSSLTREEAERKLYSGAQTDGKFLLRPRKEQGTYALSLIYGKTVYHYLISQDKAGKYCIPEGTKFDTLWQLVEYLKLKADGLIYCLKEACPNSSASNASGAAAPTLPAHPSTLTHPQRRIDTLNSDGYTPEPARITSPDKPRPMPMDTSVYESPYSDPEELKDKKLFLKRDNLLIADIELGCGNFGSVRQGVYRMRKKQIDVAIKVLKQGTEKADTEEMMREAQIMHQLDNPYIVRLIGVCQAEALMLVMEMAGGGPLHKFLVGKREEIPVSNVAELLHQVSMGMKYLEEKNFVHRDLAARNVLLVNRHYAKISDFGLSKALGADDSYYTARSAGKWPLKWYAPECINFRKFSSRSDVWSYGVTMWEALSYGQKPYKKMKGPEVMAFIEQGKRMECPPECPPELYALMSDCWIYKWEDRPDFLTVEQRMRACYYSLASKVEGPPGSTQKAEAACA
Experimental: as §1, §2

Lck [3] = target: T1, Lck; experiment: Kinase substrate phosphorylation (FIG. 9C); format: biochemical; settings: 10 or 50 μM
Experimental: as §1, §2
Target sequence in this assay (P06239 whole entry, species assumed): as the sequence (P06239 whole entry) above

Yes = Yes (Homo sapiens, UniProt P07947); experiment: Kinase substrate phosphorylation (FIG. 9C); format: biochemical; settings: 10 or 50 μM
Experimental: as §1, §2

PDGFRα = PDGFRα (Homo sapiens, UniProt P16234); experiment: Kinase substrate phosphorylation (FIG. 9C); format: biochemical; settings: 10 or 50 μM
Experimental: as §1, §2

FGFR3 = FGFR3 (Homo sapiens, UniProt P22607); experiment: Kinase substrate phosphorylation (FIG. 9C); format: biochemical; settings: 10 or 50 μM
Experimental: as §1, §2

Fyn = Fyn (Homo sapiens, UniProt P06241); experiment: Kinase substrate phosphorylation (FIG. 9C); format: biochemical; settings: 10 or 50 μM
Experimental: as §1, §2

LEW kidney allografts = experiment: Rat kidney allograft survival (LEW donors to ACI recipients); format: in vivo
From the text: Rat Kidney Transplants. Adult male ACI (RT1^a) and Lewis (LEW; RT1^1) rats (160-200 g) obtained from Harlan Sprague-Dawley (Indianapolis, Ind.) were cared for according to the guidelines of the Animal Welfare Committee. Rats were housed in light- and temperature-controlled quarters and given chow and water ad libitum. Kidneys were transplanted heterotopically from LEW donors to ACI recipients using a standard microsurgical technique of Ono and Lindsey^28. […] A control group of recipients remained untreated. […] Graft survival time was defined as animal survival of life supporting kidney transplant.
To test the in vivo effects, recipients of kidney allografts were treated with 649641P (NC1153) for 7 days beginning immediately after transplantation. […] A mean survival time (MST) and SD was calculated for each group from 5-6 experiments.
A MST and SD were calculated for each group from 5-6 experiments. The combination index (CI) values were calculated.

Src, sequence (P12931 whole entry, species assumed): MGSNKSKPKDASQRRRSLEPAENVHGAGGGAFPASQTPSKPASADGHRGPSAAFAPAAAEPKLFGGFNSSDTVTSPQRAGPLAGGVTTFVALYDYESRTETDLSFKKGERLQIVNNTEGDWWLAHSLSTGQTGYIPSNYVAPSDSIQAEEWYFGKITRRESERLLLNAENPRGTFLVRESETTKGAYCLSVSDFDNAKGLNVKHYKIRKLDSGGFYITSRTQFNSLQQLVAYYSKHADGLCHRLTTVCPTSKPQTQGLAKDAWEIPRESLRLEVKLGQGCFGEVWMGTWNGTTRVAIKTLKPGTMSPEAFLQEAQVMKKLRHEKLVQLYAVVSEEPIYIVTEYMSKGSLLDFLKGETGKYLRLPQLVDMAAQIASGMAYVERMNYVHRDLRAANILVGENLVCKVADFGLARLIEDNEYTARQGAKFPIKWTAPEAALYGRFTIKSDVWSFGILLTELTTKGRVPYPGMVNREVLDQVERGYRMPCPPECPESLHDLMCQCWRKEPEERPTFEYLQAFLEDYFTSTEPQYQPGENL
FGFR3, sequence (P22607 23-806, species assumed): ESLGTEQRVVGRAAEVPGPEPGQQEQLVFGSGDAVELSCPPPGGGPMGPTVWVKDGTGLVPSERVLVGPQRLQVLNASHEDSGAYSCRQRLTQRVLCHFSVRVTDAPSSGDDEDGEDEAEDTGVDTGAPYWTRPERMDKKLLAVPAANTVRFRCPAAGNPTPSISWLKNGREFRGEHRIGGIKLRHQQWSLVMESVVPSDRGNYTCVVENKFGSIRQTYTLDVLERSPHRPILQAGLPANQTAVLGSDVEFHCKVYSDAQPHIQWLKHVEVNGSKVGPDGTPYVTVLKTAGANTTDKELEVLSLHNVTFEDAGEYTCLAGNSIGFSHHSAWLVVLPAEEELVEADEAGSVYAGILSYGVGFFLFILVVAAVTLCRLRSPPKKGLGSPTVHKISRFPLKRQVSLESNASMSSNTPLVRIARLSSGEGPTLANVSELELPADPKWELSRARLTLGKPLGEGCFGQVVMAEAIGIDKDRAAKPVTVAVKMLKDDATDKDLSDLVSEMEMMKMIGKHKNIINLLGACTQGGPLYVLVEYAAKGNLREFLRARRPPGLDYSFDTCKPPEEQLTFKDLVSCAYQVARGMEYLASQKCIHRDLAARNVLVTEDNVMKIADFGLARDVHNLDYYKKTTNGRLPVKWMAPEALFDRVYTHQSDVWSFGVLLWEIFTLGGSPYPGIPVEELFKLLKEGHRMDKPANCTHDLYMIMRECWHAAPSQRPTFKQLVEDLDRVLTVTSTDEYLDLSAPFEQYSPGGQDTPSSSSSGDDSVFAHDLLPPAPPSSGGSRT
Yes, sequence (P07947 whole entry, species assumed): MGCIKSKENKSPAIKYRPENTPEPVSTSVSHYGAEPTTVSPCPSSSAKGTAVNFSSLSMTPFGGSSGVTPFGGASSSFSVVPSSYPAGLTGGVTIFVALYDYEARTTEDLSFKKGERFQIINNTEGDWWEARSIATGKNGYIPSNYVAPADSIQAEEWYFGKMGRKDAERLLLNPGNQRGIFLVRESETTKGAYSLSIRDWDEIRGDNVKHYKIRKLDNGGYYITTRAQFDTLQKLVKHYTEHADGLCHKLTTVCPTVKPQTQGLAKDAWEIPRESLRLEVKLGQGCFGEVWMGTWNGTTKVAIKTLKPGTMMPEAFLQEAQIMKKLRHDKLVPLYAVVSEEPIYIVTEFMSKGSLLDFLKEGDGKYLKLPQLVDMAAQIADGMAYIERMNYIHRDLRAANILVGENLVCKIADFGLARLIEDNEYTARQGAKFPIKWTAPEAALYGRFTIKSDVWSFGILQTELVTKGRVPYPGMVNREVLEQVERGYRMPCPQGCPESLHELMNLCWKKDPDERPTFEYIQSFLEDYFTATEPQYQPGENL
PDGFRα, sequence (P16234 24-1089, species assumed): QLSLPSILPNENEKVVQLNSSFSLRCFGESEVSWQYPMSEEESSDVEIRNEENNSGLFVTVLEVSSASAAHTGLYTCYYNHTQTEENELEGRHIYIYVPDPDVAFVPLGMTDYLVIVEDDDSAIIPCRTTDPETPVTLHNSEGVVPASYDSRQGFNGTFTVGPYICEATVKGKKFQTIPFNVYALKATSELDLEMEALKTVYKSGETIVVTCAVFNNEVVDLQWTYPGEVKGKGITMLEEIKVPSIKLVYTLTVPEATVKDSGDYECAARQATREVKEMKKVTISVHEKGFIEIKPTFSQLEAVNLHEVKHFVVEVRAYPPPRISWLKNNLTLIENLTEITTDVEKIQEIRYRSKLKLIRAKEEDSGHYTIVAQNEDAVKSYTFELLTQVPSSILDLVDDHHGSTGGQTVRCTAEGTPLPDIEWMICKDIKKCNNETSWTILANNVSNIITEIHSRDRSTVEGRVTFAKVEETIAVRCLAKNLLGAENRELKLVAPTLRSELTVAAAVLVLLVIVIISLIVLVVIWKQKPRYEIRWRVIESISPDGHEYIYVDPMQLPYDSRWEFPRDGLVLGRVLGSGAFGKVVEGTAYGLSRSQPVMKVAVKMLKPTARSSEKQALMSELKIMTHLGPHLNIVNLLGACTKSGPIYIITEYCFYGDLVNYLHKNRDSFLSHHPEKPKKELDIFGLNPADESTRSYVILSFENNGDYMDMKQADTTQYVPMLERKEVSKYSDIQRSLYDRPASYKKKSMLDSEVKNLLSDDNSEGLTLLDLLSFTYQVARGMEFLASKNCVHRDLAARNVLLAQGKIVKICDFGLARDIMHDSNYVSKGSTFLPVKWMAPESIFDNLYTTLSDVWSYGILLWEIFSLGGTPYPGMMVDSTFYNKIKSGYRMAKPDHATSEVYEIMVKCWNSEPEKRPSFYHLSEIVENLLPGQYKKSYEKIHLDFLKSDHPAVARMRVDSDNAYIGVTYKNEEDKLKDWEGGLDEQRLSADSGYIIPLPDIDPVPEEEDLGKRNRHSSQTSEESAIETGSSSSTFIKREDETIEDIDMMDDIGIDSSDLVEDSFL
Fyn, sequence (P06241 whole entry, species assumed): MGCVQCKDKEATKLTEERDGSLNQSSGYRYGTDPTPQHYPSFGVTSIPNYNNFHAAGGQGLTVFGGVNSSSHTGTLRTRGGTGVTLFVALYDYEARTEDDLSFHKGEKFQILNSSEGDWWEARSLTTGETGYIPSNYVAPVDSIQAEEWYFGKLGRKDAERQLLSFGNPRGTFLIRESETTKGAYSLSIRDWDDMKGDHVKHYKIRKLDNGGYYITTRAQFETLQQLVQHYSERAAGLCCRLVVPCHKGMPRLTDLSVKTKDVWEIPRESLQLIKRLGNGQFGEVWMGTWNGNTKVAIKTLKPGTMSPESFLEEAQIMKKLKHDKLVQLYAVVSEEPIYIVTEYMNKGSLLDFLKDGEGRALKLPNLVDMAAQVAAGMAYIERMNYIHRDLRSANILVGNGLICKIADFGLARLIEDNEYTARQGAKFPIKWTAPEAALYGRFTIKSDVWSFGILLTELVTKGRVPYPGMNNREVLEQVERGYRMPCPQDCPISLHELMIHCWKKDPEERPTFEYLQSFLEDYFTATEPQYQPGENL

## CN(C)CC1CCCCCCCCCC(CN(C)C)C1=O (mixture of isomers) [649641P (NC1153)]
Lck [1]
  activity (tyrosine phosphorylation) of Lck: no effect; also recorded: does not block the activity; also recorded: did not inhibit
[2]; irradiated (400 rads) ACI recipients, 30×10^6 T cells from NC1153-tolerant recipients, irradiated controls 15±1.0
  rejection of LEW heart allografts after transfer of tolerant T cells: 40.0±15.0 days
[2]; irradiated ACI recipients, T cells from NC1153-tolerant recipients, n=2
  rejection of third-party heart allografts after transfer of tolerant T cells: 12±1.0 days
PKA
  PKA phosphorylation of a substrate: fails to affect the activity
PKA; listed as NC1153
  PKA phosphorylation of a substrate: fails to affect activity
Src
  Src phosphorylation of a substrate: fails to affect the activity
Src; listed as NC1153
  Src phosphorylation of a substrate: fails to affect activity
Zap70
  Zap70 phosphorylation of a substrate: fails to affect the activity
Zap70; listed as NC1153
  Zap70 phosphorylation of a substrate: fails to affect activity
Lck [3]
  Lck phosphorylation of a substrate: fails to affect the activity
Lck [3]; listed as NC1153
  Lck phosphorylation of a substrate: fails to affect activity
Yes
  Yes phosphorylation of a substrate: fails to affect the activity
Yes; listed as NC1153
  Yes phosphorylation of a substrate: fails to affect activity
PDGFRα
  PDGFRα phosphorylation of a substrate: fails to affect the activity
PDGFRα; listed as NC1153
  PDGFRα phosphorylation of a substrate: fails to affect activity
FGFR3
  FGFR3 phosphorylation of a substrate: fails to affect the activity
FGFR3; listed as NC1153
  FGFR3 phosphorylation of a substrate: fails to affect activity
Fyn
  Fyn phosphorylation of a substrate: fails to affect the activity
Fyn; listed as NC1153
  Fyn phosphorylation of a substrate: fails to affect activity
LEW kidney allografts; 649641P (NC1153) 2.5 mg/kg/d i.v. × 7 days alone
  MST ± SD: 9.5 ± 1.4 days and 9.5 ± 1.5 days
LEW kidney allografts; 649641P (NC1153) 5.0 mg/kg/d i.v. × 7 days alone
  MST ± SD: 12.2 ± 1.5 days
LEW kidney allografts; 649641P (NC1153) 10.0 mg/kg/d i.v. × 7 days alone
  MST ± SD: 18.8 ± 1.1 days
LEW kidney allografts; 649641P (NC1153) 20.0 mg/kg/d i.v. × 7 days alone
  MST ± SD: 24.8 ± 6.6 days and 24.8 ± 4.6 days
LEW kidney allografts; 649641P (NC1153) 40.0 mg/kg/d p.o. × 7 days alone
  MST ± SD: 12.3 ± 1.26 days
LEW kidney allografts; 649641P (NC1153) 80.0 mg/kg/d p.o. × 7 days alone
  MST ± SD: 18.6 ± 5.32 days
LEW kidney allografts; 649641P (NC1153) 160.0 mg/kg/d p.o. × 7 days alone
  MST ± SD: 31.0 ± 3.9 days
LEW kidney allografts; 649641P (NC1153) 240 mg/kg/day p.o. for 7 days
  MST: 47.8 ± 19.59 days
LEW kidney allografts; given alone, i.v. or oral gavage, 7 days
  rat kidney allograft survival: prolonged rat kidney allograft survival in a dose-dependent fashion
